Data on 13 molecules can be found in PubChem BioAssay (NCI).

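In this assay, cells in 96-well plates receive the compound at five concentrations for 48 hours. Endpoints are linearly interpolated between the surrounding concentrations. The concentration for 50% growth inhibition is given as GI50. TGI denotes the concentration required for complete inhibition of growth.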 Where only a bound is given, the exact number is not on record here.

Some test systems named below: 786-0 renal; CCRF-CEM leukemia; NCI-H226 lung; RXF 393 renal; SF-295 CNS; SK-MEL-5 melanoma; T-47D breast; A498 renal.
Holding throughout (experiment): NCI-60 cell line screen, 48 h

`O=S(=O)(NC(=S)Nc1ccccc1)c1ccc(N2N=C3c4ccccc4CC3C2c2cccs2)cc1` (stereo not drawn): the GI50 in the assay with 786-0 renal was 19.7 µM; in the assay on CCRF-CEM leukemia it was 30.5 µM; in the assay on NCI-H226 lung, 27.2 µM; with RXF 393 renal, 78.1 µM; with SF-295 CNS, 18.9 µM; with SK-MEL-5 melanoma it was 20.8 µM. The GI50 in the assay on T-47D breast was more than 100 µM. In addition, the TGI is 40.4 µM in the assay on 786-0 renal; 85.9 µM with CCRF-CEM leukemia; 55.4 µM in the assay with NCI-H226 lung; more than 100 µM with RXF 393 renal; 41.8 µM with SF-295 CNS; 44.7 µM with SK-MEL-5 melanoma. Further, the TGI with T-47D breast is more than 100 µM.
As for `NCCNCC(O)CO` (stereo not drawn), the TGI with 786-0 renal, in the assay with A498 renal, in the assay with NCI-H226 lung, in the assay with RXF 393 renal, in the assay with SF-295 CNS and with SK-MEL-5 melanoma was more than 100 µM in each case. For the same molecule, the TGI with T-47D breast is more than 100 µM.
Consider `Nc1ccn([C@H]2C[C@@H](O)[C@@H](CO)S2)c(=O)n1`, for which the GI50 was more than 100 µM in the assay on 786-0 renal; more than 100 µM with A498 renal; more than 100 µM in the assay on NCI-H226 lung; more than 39.1 µM in the assay on RXF 393 renal; more than 100 µM in the assay on SF-295 CNS; more than 42.3 µM with SK-MEL-5 melanoma. The GI50 in the assay on T-47D breast was more than 100 µM. Moreover, the TGI with 786-0 renal, in the assay with A498 renal, in the assay with NCI-H226 lung, in the assay on RXF 393 renal, in the assay with SF-295 CNS and with SK-MEL-5 melanoma was more than 100 µM each time. In the assay with T-47D breast, this molecule showed a TGI of more than 100 µM.
For the molecule `O=C(O)c1cc2ccccc2c(N=Nc2c([N+](=O)[O-])cc([N+](=O)[O-])cc2S(=O)(=O)O)c1O`, the TGI in the assay on 786-0 renal, in the assay with CCRF-CEM leukemia, with NCI-H226 lung, in the assay on RXF 393 renal, in the assay with SF-295 CNS and with SK-MEL-5 melanoma was more than 100 µM in each case.
On to `COc1cc2c3c(n(CCCN4CCN(C)CC4)c(=O)c2cc1OC)-c1cc2c(cc1C3=O)OCO2`, for which the GI50 is 12.9 µM in the assay with 786-0 renal; 2.44 µM with CCRF-CEM leukemia; 13.9 µM in the assay with NCI-H226 lung; 20.5 µM with RXF 393 renal; 10.7 µM in the assay with SF-295 CNS; 14.2 µM with SK-MEL-5 melanoma. Moreover, the TGI in the assay with 786-0 renal was determined as 25.5 µM; in the assay with CCRF-CEM leukemia, 17.7 µM; in the assay with NCI-H226 lung, 31 µM; in the assay on RXF 393 renal it was 55 µM; in the assay on SF-295 CNS it was 31.7 µM; in the assay with SK-MEL-5 melanoma, 32.2 µM.
In the case of `COc1ncc(-c2nc3c(n2C(C)C)[C@H](c2ccc(Cl)cc2)N(c2cc(Cl)cn(C)c2=O)C3=O)c(OC)n1`, the GI50 in the assay with 786-0 renal is 67.5 µM; in the assay with A498 renal, 19.2 µM; with CCRF-CEM leukemia it was 30.9 µM; with NCI-H226 lung, 15.1 µM; with SF-295 CNS, 36.8 µM; in the assay with SK-MEL-5 melanoma it was 11.7 µM. In addition, the GI50 in the assay with T-47D breast was 29.5 µM. Also, the TGI is more than 100 µM in the assay with 786-0 renal; 84.6 µM in the assay with A498 renal; more than 100 µM with CCRF-CEM leukemia; 80.4 µM in the assay on NCI-H226 lung; more than 100 µM with SF-295 CNS; 24.1 µM with SK-MEL-5 melanoma. The same molecule had a TGI with T-47D breast of more than 100 µM.
In the case of `O=C1c2cccnc2-c2nc(/C=C/c3ccccc3)cc3c2c1nc1ccccc13`, the GI50 in the assay on 786-0 renal was 2.26 µM; with A498 renal, 3.88 µM; in the assay on CCRF-CEM leukemia it was 3.06 µM; in the assay on NCI-H226 lung, 10.1 µM; with RXF 393 renal it was 14.8 µM; in the assay on SF-295 CNS it was 2.31 µM. In the assay with T-47D breast, the GI50 is 6.16 µM. The TGI in the assay with 786-0 renal was 6.48 µM; with A498 renal, 10.5 µM; with CCRF-CEM leukemia, more than 100 µM; with NCI-H226 lung it was 28 µM; in the assay on RXF 393 renal, 37.1 µM; with SF-295 CNS it was 5.27 µM. In the assay with T-47D breast, the TGI was more than 78.7 µM.
Consider `O=C1C(Cl)=C(Nc2ccc3cn[nH]c3c2)C(=O)c2ccccc21`, for which the GI50 in the assay with 786-0 renal is 1.81 µM; with A498 renal it was 3.05 µM; in the assay with CCRF-CEM leukemia it was 1.52 µM; in the assay on RXF 393 renal, 1.54 µM; in the assay on SF-295 CNS, 1.67 µM; in the assay with SK-MEL-5 melanoma, 0.308 µM. Also, the GI50 with T-47D breast is 1.24 µM. Moreover, the TGI is 3.21 µM with 786-0 renal; 8.9 µM with A498 renal; 3.91 µM in the assay on CCRF-CEM leukemia; 2.92 µM in the assay on RXF 393 renal; 4.14 µM with SF-295 CNS; 1.26 µM in the assay on SK-MEL-5 melanoma. The molecule also came in with a TGI in the assay with T-47D breast of 3.27 µM.
Take `COc1ccc2cc(C(=O)/C=C/c3cccc(Cl)c3Cl)ccc2c1`: the GI50 in the assay on 786-0 renal was 6.08 µM; in the assay with A498 renal it was 18.1 µM; in the assay on CCRF-CEM leukemia, 52.6 µM; with RXF 393 renal, 2.79 µM; in the assay on SF-295 CNS it was 5.94 µM; in the assay with T-47D breast, more than 59 µM. Also, the TGI in the assay on 786-0 renal was more than 41.5 µM; with A498 renal, 32.1 µM; in the assay with CCRF-CEM leukemia it was more than 100 µM; with RXF 393 renal, 12.4 µM; with SF-295 CNS it was more than 100 µM; in the assay on SK-MEL-5 melanoma it was 4.3 µM. The same molecule returned a TGI in the assay with T-47D breast of more than 100 µM.
Take `O=C(Nc1cnn2ccc(N3CCC[C@@H]3c3cc(F)ccc3F)nc12)N1CC[C@H](O)C1`: the GI50 in the assay with 786-0 renal, in the assay with A498 renal, with NCI-H226 lung, with RXF 393 renal, in the assay on SF-295 CNS and in the assay on SK-MEL-5 melanoma was more than 100 µM throughout. Further, the GI50 in the assay on T-47D breast is more than 100 µM. Also, the TGI in the assay on 786-0 renal, in the assay on A498 renal, in the assay with NCI-H226 lung, in the assay on RXF 393 renal, with SF-295 CNS and in the assay on SK-MEL-5 melanoma was more than 100 µM each time. The same molecule showed a TGI in the assay on T-47D breast of more than 100 µM.
Take `Cc1ccc(-c2ccc(Nc3c4ccccc4nc4ccccc34)cc2)cn1`: the TGI in the assay on 786-0 renal was determined as 3.42 µM; in the assay on SF-295 CNS, 11.9 µM; with SK-MEL-5 melanoma, 16.5 µM; with T-47D breast it was 5.44 µM.
On to `CCCCn1c2c(c3ccccc3c1=O)C(=O)c1ccccc1-2`, for which the TGI in the assay on 786-0 renal, with A498 renal, with CCRF-CEM leukemia, in the assay on NCI-H226 lung, in the assay on SF-295 CNS and in the assay on SK-MEL-5 melanoma was more than 100 µM in each case. In the assay on T-47D breast, this molecule had a TGI of more than 100 µM.
As for `OCCSCCCSCCO`, the TGI with 786-0 renal, with CCRF-CEM leukemia, in the assay with SF-295 CNS, with SK-MEL-5 melanoma and in the assay on T-47D breast was more than 100 µM in each case.
